From PMC12723162, “Alphaherpesvirus pUL21 homologs use non-canonical sequences to compete with cellular adaptors for protein phosphatase 1 binding” (The Journal of Biological Chemistry, 2025)

Experiments:
[1] = biological target: T1, PP1γ catalytic domain (7–300), C-terminally His6-tagged (Mus musculus, UniProt P63087); test: Isothermal titration calorimetry (ITC); assay type: binding; set-up: key to KD / ∆H / ∆G / -T∆S / N (sites): –: no binding detected; conditions: for KD: HEPES pH 8.0, 25 °C
T1 construct: mouse PP1γ catalytic domain (residues 7–300)-H6; made in house; host or cells: E. coli T7 Express lysY/Iq
From the text: (§1) Bacterial expression plasmids encoding the mouse PP1γ catalytic domain (residues 7–300)-H6 and pUL21-H6, and mammalian expression vectors encoding pUL21(FV242AA)-GFP, pORF38-GFP and pORF38(FV255AA)-GFP, were described previously ([23]). We note that the mouse and human PP1γ catalytic domains share 100% amino acid identity. pORF38-NLT-H6 was generated by sub-cloning residues 1 to 263 of ORF38 into the vector pOPTnH ([52]). pUL21-RVxF-H6 was generated by inserting the mutations A237V and V239F into pUL21-H6 by QuikChange site-directed mutagenesis. Human PP1α was cloned from HeLa cell cDNA into a vector derived from pF5K (Promega) with an N-terminal Myc epitope tag via restriction-based cloning, and point mutations were introduced into Myc-PP1α by QuikChange mutagenesis. A plasmid encoding pUL21-GFP was generated by sub-cloning a codon-optimized synthetic UL21 gene (GeneArt) into pEGFP-N1 (Clontech), yielding an identical pUL21-GFP amino acid sequence as used in ([23]). pUL21-ΔL, -ΔR and -ΔLR were generated from this vector via inverse PCR, and point mutations were introduced via QuikChange mutagenesis.
Proteins were expressed using E. coli T7 Express lysY/I^q cells (New England Biolabs) grown in 2 × TY medium at 37 °C to OD600 0.8 to 1.2 before cooling to 22 °C and induction of protein expression using 0.4 mM IPTG. Cells were harvested at 16 to 20 h post-induction and pellets stored at −70 °C until required. Cells were resuspended in chilled lysis buffer (20 mM Tris pH 7.5, 20 mM imidazole, 500 mM NaCl, 1.4 mM β-mercaptoethanol 0.5 mM MgCl2 and 0.05% TWEEN-20 [plus 1 mM MnCl2 for PP1]) that was supplemented with 200 μl EDTA-free protease inhibitor cocktail (Merck) and 400 U bovine DNase I (Merck). Cells were lysed using a TS series cell disruptor (Constant Systems) at 24 kpsi and lysates were clarified (40,000×g, 30 min, 4 °C) before incubation with Ni-NTA agarose (Qiagen) for 1 h at 4 °C. The resin was washed with ≥20 column volumes of wash buffer (20 mM Tris, 20 mM imidazole and 500 mM NaCl [plus 1 mM MnCl2 for PP1]) at pH 7.5 (PP1γ and pORF38-NLT) or pH 8.5 (pUL21 and pUL21-RVxF). Protein was eluted using wash buffer supplemented with additional imidazole (final concentration 250 mM) and proteins were subjected to size-exclusions chromatography using HiLoad 16/600 Superdex 75 (PP1) or Superdex 200 (other) columns equilibrated in 20 mM Tris pH 8.5, 500 mM NaCl, 1 mM DTT (for pUL21 and pUL21-RVxF) or 50 mM HEPES pH 8.0, 500 mM NaCl, 0.5 mM TCEP (for PP1 and pORF38-NLT). Fractions were analysed by SDS-PAGE and those containing the desired protein were pooled, concentrated using centrifugal concentrators (Millipore) and stored at 4 °C (short-term) or snap-frozen in liquid nitrogen for long-term storage at −70 °C.
ITC experiments were performed using a MicroCal PEAQ-ITC automated calorimeter (Malvern Panalytical). The solvent (ITC buffer) was 50 mM HEPES pH 8.0, 500 mM NaCl, 0.5 mM TCEP. Lyophilized peptides were dissolved into ITC buffer and their concentration was estimated from dry mass. Proteins were diluted in ITC buffer, and their concentration was estimated from the theoretical extinction coefficient at 280 nm ([53]). […] Data were analyzed using MicroCal PEAQ-ITC analysis software (Malvern Panalytical) and fitted using a one-site binding model.
Table S1. Isothermal titration calorimetry (ITC) of PP1 with TROPPO-containing peptides and proteins. Data for independent experiments are shown. For all, the cell contained C-terminally His6-tagged mouse PP1γ (7–300). –, no binding detected.

[2] = biological target: T2, PP1γ catalytic domain : GADD34 peptide pre-formed complex (Mus musculus, UniProt P63087); test: Competition fluorescence anisotropy, displacement of FITC-GADD34 peptide from PP1γ (HEPES pH 8.0); assay type: binding; conditions: 2 nM fluorescent GADD34 peptide + 250 nM PP1γ; competitor at over 1000-fold molar excess; HEPES pH 8.0, 500 mM NaCl, 0.05% TWEEN-20; 27 °C
T2 construct: mouse PP1γ catalytic domain (residues 7–300)-H6; His6 (C); made in house; host or cells: E. coli T7 Express lysY/Iq (PP1γ); tracer peptide synthesised by GenScript
From the text: as §1
Peptides were commercially synthesised to >95% purity (GenScript) as follows: GADD34 RVxF+ϕϕ[xF] […]
Proteins were expressed using E. coli T7 Express lysY/I^q cells (New England Biolabs) grown in 2 × TY medium at 37 °C to OD600 0.8 to 1.2 before cooling to 22 °C and induction of protein expression using 0.4 mM IPTG. […] Fractions were analysed by SDS-PAGE and those containing the desired protein were pooled, concentrated using centrifugal concentrators (Millipore) and stored at 4 °C (short-term) or snap-frozen in liquid nitrogen for long-term storage at −70 °C.
Fluorescence anisotropy was measured using a SpectraMax i3 microplate reader (Molecular Devices) with wavelengths 485 ± 20 nm (excitation) and 535 ± 25 nm (emission). Samples (100 μl per well) were dispensed into low-bind black half-area 96-well microtitre plates (Corning) and fluorescence anisotropy was recorded at 27 °C. […]

[3] = system: pUL21-GFP; test: Co-IP of Myc-PP1 with pUL21-GFP; assay type: binding, HSV-1; conditions: for Co-IP of Myc-PP1 by pUL21-GFP: HEK 293T cells co-transfected, 24 h, immunoblot, versus WT Myc-PP1; for Abundance of Myc-PP1 in cell lysates: HEK 293T lysates used for IP; for Abundance of Myc-PP1 in cell lysates / Bound:input ratio of Myc-PP1 (effect of mutation): versus WT; for Bound:input ratio of Myc-PP1 (effect of mutation): densitometry, HEK 293T, ∗∗∗p < 0.001
From the text: as §1
(§2) Mycoplasma-free human embryonic kidney 293T (HEK 293T) cells (American Type Culture Collection #CRL-3216) were maintained in Dulbecco’s modified Eagle’s medium (DMEM) with high glucose (Merck), supplemented with 10% (v/v) heat-inactivated fetal calf serum and 2 mM L-glutamine (complete DMEM) in a humidified 5% CO2 atmosphere at 37 °C. The identity of the cell line was not independently confirmed.
(§3) Monolayers of HEK 293T cells were transfected with 7.7 μg of DNA per 9 cm dish, using 18 μg/ml 25 kDa branched polyethylenimine (Merck) or using TransIt-LT1 (Mirus) in accordance with the manufacturer’s instructions. Cells were harvested 24 h post-transfection and incubated for 30 min in ice-cold 10 mM Tris pH 7.5, 150 mM NaCl, 0.5 mM EDTA, 0.5% Igepal CA-630 (a.k.a. NP-40), 1% (v/v) EDTA-free protease inhibitor cocktail (Merck) before clarification at 21,000×g for 10 min at 4 °C. Lysate protein concentrations were measured using the bicinchoninic acid (BCA) assay (Pierce) and normalized before affinity capture using GFP-Trap resin (ChromoTek) following the manufacturer’s protocol. Samples were eluted by heating the resin to 95 °C for 5 min in 45 μl 2 × SDS-PAGE loading buffer. Proteins were separated by SDS-PAGE and transferred to 0.45 μm nitrocellulose membranes (PerkinElmer or Cytiva). Membranes were stained with Ponceau S and imaged using a G:Box XX9 (Syngene) before blocking in Tris-buffered saline with 0.1% TWEEN-20 (TBS-T) supplemented with 5% (w/v) non-fat milk powder. Immunoblotting was performed using antibodies diluted in blocking buffer as listed below, and immunoblots were imaged using an Odyssey CLx (LI-COR Biosciences). Densitometry was performed using Image Studio Lite version 5.2 (LI-COR Biosciences), and statistical tests were performed using Prism version 7 (GraphPad).
(§4) The following primary antibodies and dilutions were used for immunoblotting: rabbit anti-CERT 1:10,000 (Abcam #Ab72536), mouse anti-PP1α 1:1000 (Santa Cruz #sc-271762), mouse anti-Myc 1:4000 (Millipore #05–724), rat anti-tubulin (clone YL1/2) hybridoma supernatant 1:40 ([54]). The anti-CERT antibody was validated using a knock-out cell line. The anti-PP1α antibody has been validated by siRNA knockdown ([55]). The anti-Myc antibody was validated using control experiments lacking Myc-tagged transfected constructs ([56]). The anti-tubulin antibody has been validated by immunofluorescence microscopy, immuno-electron microscopy and radiolabeled immunosorbent assay ([54]). Secondary antibodies from LI-COR Biosciences were diluted 1:10,000 as follows: IRDye 680RD goat anti-rat (#926–68029) and goat anti-mouse (#926–68020), or IRDye 800CW goat anti-rabbit (#926–32221).

[4] = system: PP1 regulatory protein; conditions: cited from earlier work
From the text: HEK 293T cells were co-transfected with pUL21-GFP and WT or mutant Myc-PP1, and lysates were subjected to GFP affinity capture before SDS-PAGE and immunoblott ...

[5] = system: endogenous PP1α; test: GFP affinity capture / co-IP of endogenous PP1α with GFP-tagged bait; assay type: binding, human; conditions: HEK 293T cells, 24 h post-transfection, GFP-Trap, immunoblot; representative of two independent experiments
From the text: as §1, §2, §3, §4

[6] = TROPPO peptide, independent experiment 3, syringe/cell µM: pORF38 500/16.0
[7] = TROPPO peptides, independent experiment 1, syringe/cell µM: pUL21 1000/58.8, pORF38 1000/79.6
[8] = TROPPO peptides, independent experiment 2, syringe/cell µM: pUL21 1000/54.5, pORF38 500/17.0

T1 sequence (P63087 7-300): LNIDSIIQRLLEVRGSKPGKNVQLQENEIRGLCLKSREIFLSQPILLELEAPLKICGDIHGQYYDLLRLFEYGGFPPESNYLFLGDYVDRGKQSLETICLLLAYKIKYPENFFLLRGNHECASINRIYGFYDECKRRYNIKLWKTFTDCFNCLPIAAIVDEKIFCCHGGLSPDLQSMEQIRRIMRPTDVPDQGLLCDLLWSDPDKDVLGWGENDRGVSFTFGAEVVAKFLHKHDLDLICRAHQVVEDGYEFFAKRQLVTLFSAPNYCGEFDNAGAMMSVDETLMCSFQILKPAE
T2 sequence (P63087 7-300, one chain of several): as the sequence (P63087 7-300) above

KSDHITLSNFVQIRTIPR [pORF38 TROPPO, pORF38 TROPPO peptide (residues 246–263)]
ITC heats of TROPPO peptides against PP1 catalytic domain ([1]; 500–1000 μM peptide titrated, 50 mM HEPES pH 8.0, 500 mM NaCl, 0.5 mM TCEP, 25 °C): did not evolve heats above background levels
-T∆S [1, 6]: –
N (sites) [1, 6]: –
∆G [1, 6]: –
∆H [1, 6]: –
KD [1, 6]: –
-T∆S [1, 7]: –
N (sites) [1, 7]: –
∆G [1, 7]: –
∆H [1, 7]: –
KD [1, 7]: –
-T∆S [1, 8]: –
N (sites) [1, 8]: –
∆G [1, 8]: –
∆H [1, 8]: –
KD [1, 8]: –
Displacement of GADD34 peptide from PP1 by TROPPO peptides [2]: Neither TROPPO-containing peptide was able to displace the GADD34 peptide

F257A
Co-IP of Myc-PP1 by pUL21-GFP [3]: profoundly less efficient than for WT Myc-PP1
Abundance of Myc-PP1 in cell lysates [3]: lower abundance of these mutants in the cell lysates
Bound:input ratio of Myc-PP1 (effect of mutation) [3]: significantly disrupt binding to pUL21-GFP
PP1 regulatory protein binding [4]: severely decrease PP1 regulatory protein binding

C291R
Co-IP of Myc-PP1 by pUL21-GFP [3]: profoundly less efficient than for WT Myc-PP1
Abundance of Myc-PP1 in cell lysates [3]: lower abundance of these mutants in the cell lysates
Bound:input ratio of Myc-PP1 (effect of mutation) [3]: significantly disrupt binding to pUL21-GFP
PP1 regulatory protein binding [4]: severely decrease PP1 regulatory protein binding

L289R
Co-IP of Myc-PP1 by pUL21-GFP [3]: profoundly less efficient than for WT Myc-PP1
Abundance of Myc-PP1 in cell lysates [3]: lower abundance of these mutants in the cell lysates
Bound:input ratio of Myc-PP1 (effect of mutation) [3]: significantly disrupt binding to pUL21-GFP
PP1 regulatory protein binding [4]: severely decrease PP1 regulatory protein binding

B1: V239F (protein)
chain: MELSYATTMHYRDVVFYVTTDRNRAYFVCGGCVYSVGRPCASQPGEIAKFGLVVRGTGPDDRVVANYVRSELRQRGLQDVRPIGEDEVFLDSVCLLNPNVSSELDVINTNDVEVLDECLAEYCTSLRTSPGVLISGLRVRAQDRIIELFEHPTIVNVSSHFVYTPSPYVFALAQAHLPRLPSSLEALVSGLFDGIPAPRQPLDAHNPRTDVVITGRRAPRPIAGSGAGSGGAGAKRATFSEFVQVKHIDRVGPAGVSPAPPPNNTDSSSLVPGAQDSAPPGPTLRELWWVFYAADRALEEPRADSGLTREEVRAVRGFREQAWKLFGSAGAPRAFIGAALGLSPLQKLAVYYYIIHRERRLSPFPALVRLVGRYTQRHGLYVPRPDDPVLADAINGLFRDALAAGTTAEQLLMFDLLPPKDVPVGSDVQADSTALLRFIESQRLAVPGGVISPEHVAYLGAFLSVLYAGRGRMSAATHTARLTGVTSLVLAVGDVDRLSAFDRGAAGAASRTRAAGYLDVLLTVRLARSQHGQSV
modifications: left off: GFP (from the vector pEGFP-N1), end not stated, kept
Co-IP of endogenous PP1α [5]: co-precipitated more PP1α than did WT pUL21-GFP
